The record followed here is patent US20120065365A1, “Stable Radiopharmaceutical Compositions and Methods for Their Preparation” (BRACCO IMAGING S.P.A., priority 2003, published 2012).

Counter-ions that a name gives are not always drawn. Like-named read-outs stand apart in the source and are kept apart here.

Series [1] is classed as physicochemical. The note with it: ^177Lu-A (3.6 mCi) prepared in presence of 2.5 mg/mL stabilizer. The method, then: To lead-shielded 4-mL vials was added 200 μL of the individual NaOAc-stabilizer solutions, 3.58 mCi ^177LuCl3 (avg) and 5.08 μg COMPOUND A (dissolved in water). The ratio of COMPOUND A to Lutetium was 3:1 for all samples. The reaction mixtures were heated to 100° C. for 5 minutes, then cooled, treated with Na2EDTA.2H2O, subdivided and stored as described in Example 9. The radiochemical purity (RCP) percentage data obtained are listed Table 12.

The format of series [2] is physicochemical. The following applies: ^177Lu-A (2.7-3.7 mCi) prepared in presence of 1 mg/mL stabilizer; for RCP % t = 24 h (frozen): 24 h frozen (−10° C.). The method, then: The injection volume was 10 μL.
Each individual stabilizer was prepared at a concentration of 1 mg/mL in sodium acetate (NaOAc) buffer (0.2 M, pH 4.8). […] The reaction mixture was heated to 100° C. for 5 minutes, and then cooled for 5 minutes in an ambient-temperature water hath. To each sample, 10 μL of 2% Na2EDTA.2H2in water was added, and then each was divided into two 100-μL aliquots. One aliquot was analyzed by HPLC (Method 5) and then stored at room temperature in a sealed lead container for 24 hours. The other aliquot was stored frozen (−10° C.) for 24 hours. Each sample was analyzed at t=24 h.

The format of series [3] is physicochemical. The following applies: for Replicate 1 RCP % t = 0 h: ^177Lu-A (3.55 mCi avg) prepared in presence of 5 mg/mL stabilizer, HPLC Method 1, t = 0 h; for Replicate 2 RCP % t = 0 h / Replicate 2 RCP % t = 24 h: ^177Lu-A (4.37 mCi avg) prepared in presence of 5 mg/mL stabilizer; for Replicate 2 RCP % t = 0 h: HPLC Method 2, t = 0 h; for Replicate 2 RCP % t = 24 h: HPLC Method 2, t = 24 h. The procedure:
(§1) The injection volume was 20 μL.
Each stabilizer was prepared at a concentration of 5 mg/mL in sodium acetate (NaOAc) buffer (0.2 M, pH 4.8). To lead-shielded 4-mL vials were added 200 μL of the individual stabilizer solutions, 3.55 mCi ^177LuCl3 (avg) and 5.44 μg COMPOUND A (dissolved in water). A second set of replicates of each sample was prepared, using the individual stabilizers. To these was added 4.37 mCi ^177LuCl3 (avg) and 6.7 μg (avg) COMPOUND A (dissolved in water). The ratio of COMPOUND A to lutetium was 3:1 for all samples. The reaction mixture was heated to 100° C. for 5 minutes then cooled for 5 minutes in an ambient-temperature water bath. To each sample, 10 μL of 2% Na2EDTA.2H2O in water was added, then each was analyzed by HPLC (Method 1 for the first set of replicates; Method 2 for the second set of replicates). The second set of replicates were stored and analyzed again at t=24 h.

Series [4] is classed as physicochemical. The following applies: ^177Lu-A (3.34 mCi avg per aliquot), stabilizer 5 mg/mL added after complex preparation; analysed 1-3.5 hrs after preparation. The procedure: In this study, sulfur-containing compounds were tested. Cysteine has been used as an antioxidant for many drugs that contain oxidizable residues.
Solutions of each individual stabilizer (10 mg/mL) were prepared in water. To a lead-shielded 4-mL vial was added 300 μL of NaOAc buffer (0.2M, pH 4.8), 29.0 mCi ^177LuCl3 and 41.4 μg COMPOUND A (dissolved in water). The ratio of COMPOUND A to Lutetium was 3:1. The reaction mixture was heated, cooled, treated with Na2EDTA.2H2O and analyzed by HPLC as described in Example 13. Seven 50-μL aliquots (3.34 mCi ^177Lu avg each) were transferred to individual HPLC vials. To one aliquot, 50 μL of water was added for use as a control sample (no stabilizer). To the other six aliquots, 50 μL of an individual stabilizer solution (0.5 mg of stabilizer) was added, and then each was analyzed by HPLC (Method 2). The control sample, and L-cysteine ethyl ester hydrochloride and L-cysteine methyl ester hydrochloride samples were analyzed again after 24 hours of storage at room temperature.

The format of series [5] is physicochemical. The note with it: ^177Lu-A 13.9 mCi/mL, stabilizer 5 mg/mL added after complex preparation, room temperature. The method, then:
as §1
Compounds containing the —C═S moiety [dithiocarbamates and ethionamide] were examined in this study.
Each individual stabilizer was prepared at a concentration of 10 mg/mL in water. Ethionamide was dissolved in EtOH. […] The reaction mixture was heated to 100° C. for 5 minutes, then cooled for 5 minutes in an ambient-temperature water bath. […] To an aliquot, 100 μL of one of the stabilizer solutions (1 mg of stabilizer) was added. Each aliquot was analyzed (t=0 h) by HPLC (Method 2) and stored at room temperature for 48 hours. All samples were analyzed again at t=24 h and 48 h.

The format of series [6] is physicochemical. The following applies: for RCP % t = 0 h: ^177Lu-A (5.25 mCi avg) prepared in presence of stabilizer ~3.33 mg/mL. The procedure:
as §1
Ethionamide was prepared at a 10 mg/mL concentration by dissolving it in EtOH. […] Another sample was prepared to which was added 100 μL of ethanol only (no stabilizer), for use as a control sample. […] The reaction mixture was heated to 100° C. for 5 minutes then cooled for 5 minutes in an ambient-temperature water bath. To each sample, 10 μL of 2% Na2EDTA.2H2O in water was added, and then each was analysed by HPLC (Method 2) and stored at room temperature for up to 96 hours.

Series [7] is classed as physicochemical. The method, then: The reaction vial was crimp-sealed and heated at 100° C. for 5 min. […] The sample was stored in an autosampler in which the temperature is ˜6° C. […] than room temperature, and analyzed by RP-HPLC for up to 24 hours.
L-Selenomethionine: ^177Lu-B was prepared, diluted and analyzed as described above, but 5 mg of L-Se-Met was used in place of PDTC, the heating time was 10 minutes, and the quantity of radioactivity used was 52 mCi.
L-cysteine ethyl ester, HCl: ^177Lu-B was prepared, diluted and analyzed as described above, but 5 mg of L-CEE, hydrochloride salt was used in place of PDTC, the heating time was 5 minutes and the quantity of radioactivity used was 50 mCi.
L-cysteine HCl.H2O: ^177Lu-B was prepared, diluted and analyzed as described above, but 5 mg of L-Cys HCl.H2O was used in place of PDTC, the heating time was 8 minutes and the quantity of radioactivity used was 53 mCi.

Where [8] appears, read: ^177Lu-A prepared in presence of stabilizer ~3.33 mg/mL, room temperature.

As for `O=C([O-])c1cc(O)ccc1O.[Na+]` [Gentisic acid, 2,5-Dihydroxybenzoic acid sodium salt hydrate (Gentisic acid)], in series [1], the “RCP % t = 24 h (frozen)” value turned out to be 82.8%, the “RCP % t = 24 h (room temp)” value turned out to be 78.6% and the “RCP % t = 0 h” value was determined as 100%. Further, in series [2], the “RCP % t = 24 h (frozen)” value is 84.3%, the “RCP % t = 24 h (room temp)” value is 64.9% and the “RCP % t = 0 h” value is 100%. In addition, in series [3], the “Replicate 1 RCP % t = 0 h” value is 93.9%, the “Replicate 2 RCP % t = 0 h” value amounted to 96.6% and the “Replicate 2 RCP % t = 24 h” value is 75.2%.

Regarding `Cl.Cl.NCCSSCCN` [Cystamine dihydrochloride], in series [4], the “RCP % t = 0 h” value worked out at 66.2%.

Turning to `S=c1[nH]c(=S)[nH]c(=S)[nH]1` [Trithiocyanuric acid trisodium salt nonahydrate], the “RCP % t = 0 h” value in series [5] is 96.9%; in series [6], 100%. Further, the results for the “RCP % t = 24 h” value in series [5] and in series [6] (setting [8]) were 95.9% and 100%, respectively. In series [5], the “RCP % t = 48 h” value was found to be 100%. Moreover, the “RCP % t = 96 h” value in series [6] (^177Lu-A prepared in presence of stabilizer ~3.33 mg/mL, room temperature, 96 h) turned out to be 0%.

Turning to `CSCC[C@@H](N)C(=O)O` [D-Methionine], in series [1], the “RCP % t = 24 h (frozen)” value is given as 100%, the “RCP % t = 24 h (room temp)” value is 99.6% and the “RCP % t = 0 h” value is recorded as 100%. In addition, in series [2], the “RCP % t = 24 h (frozen)” value amounted to 100%, the “RCP % t = 24 h (room temp)” value was determined as 100% and the “RCP % t = 0 h” value is on record as 100%. Moreover, in series [3], the “Replicate 1 RCP % t = 0 h” value worked out at 100%, the “Replicate 2 RCP % t = 0 h” value is listed as 97.6% and the “Replicate 2 RCP % t = 24 h” value is 80.7%.

Take `N[C@@H](CS(=O)O)C(=O)O.O` [L-cysteinesulfinic acid monohydrate]: in series [4], the “RCP % t = 0 h” value turned out to be 75.0%.

Regarding `COC(=O)[C@@H](N)CSSC[C@H](N)C(=O)OC.Cl.Cl`, the “RCP % t = 0 h” value in series [4] amounted to 70.1%.

Regarding `N[C@@H](CS)C(=O)O` [L-cysteine, L-cysteine hydrochloride monohydrate], the “(% RCP) 3-h” value in series [7] (^177Lu-B (44-53 mCi) formulated with 5 mg stabilizing compound, 3 h) is 94.7%. The “(% RCP) 6-h” value in series [7] (^177Lu-B (44-53 mCi) formulated with 5 mg stabilizing compound, 6 h) stood at 87.3%. For the same molecule, the “(% RCP) 9-h” value in series [7] (^177Lu-B (44-53 mCi) formulated with 5 mg stabilizing compound, 9 h) stood at 79.4%. The “(% RCP) 12-h” value in series [7] (^177Lu-B (44-53 mCi) formulated with 5 mg stabilizing compound, 12 h) is 73.6%. Further, the “(% RCP) 24-h” value in series [7] (^177Lu-B (44-53 mCi) formulated with 5 mg stabilizing compound, 24 h) is 50.9%. Besides, the “(% RCP) 0-h” value in series [7] (^177Lu-B (44-53 mCi) formulated with 5 mg stabilizing compound, diluted to ~2 mL, ~6° C. above room temperature, 0 h) is listed as 99.1%. For the same molecule, in series [7] (^177Lu-B formulated with 5 mg stabilizing compound, 0 to 24 h), the “RCP Drop over 24 hr” value was determined as 48.2%. Further, in series [1], the “RCP % t = 24 h (frozen)” value is reported as 51.0%, the “RCP % t = 24 h (room temp)” value amounted to 88.3% and the “RCP % t = 0 h” value came to 100%. Further, in series [2], the “RCP % t = 24 h (frozen)” value turned out to be 82.1%, the “RCP % t = 24 h (room temp)” value is on record as 83.3% and the “RCP % t = 0 h” value was determined as 100%. In series [3], the “Replicate 1 RCP % t = 0 h” value is reported as 93.3%, the “Replicate 2 RCP % t = 0 h” value was 91.0% and the “Replicate 2 RCP % t = 24 h” value is reported as 67.4%.

Consider `CCN(CC)C(=S)S` [Sodium diethyldithiocarbamate trihydrate, Diethyldithiocarbamate sodium salt], for which, in series [5], the “RCP % t = 0 h” value came to 97.8%, the “RCP % t = 24 h” value came to 97.1% and the “RCP % t = 48 h” value was 96.2%. Moreover, the “RCP % t = 0 h” value in series [6] is reported as 52.8%. For the same molecule, the “RCP % t = 24 h” value in series [6] (setting [8]) stood at 0%.

With `CCOC(=O)[C@@H](N)CSSC[C@H](N)C(=O)OCC.Cl.Cl` [L-cysteine diethyl ester dihydrochloride], the “RCP % t = 0 h” value in series [4] worked out at 61.5%.

Consider `O=C1O[C@H]([C@@H](O)CO)C([O-])=C1O.[Na+]` [Ascorbic acid, Sodium L-ascorbate (Ascorbic acid)], for which, in series [1], the “RCP % t = 24 h (frozen)” value is reported as 78.4% and the “RCP % t = 24 h (room temp)” value amounted to 88.1%. The “RCP % t = 0 h” value in series [2] is recorded as 98.7%. Besides, in series [3], the “Replicate 1 RCP % t = 0 h” value turned out to be 87.6%, the “Replicate 2 RCP % t = 0 h” value turned out to be 30.2% and the “Replicate 2 RCP % t = 24 h” value was 24.5%.
